Each structure is given as a SMILES string.

The test relates to hyperlipidemia quail. Nature of the test: Lipid-lowering in vivo experiments in hyperlipidemia quail. To be noted: for CHO / H/L / HDL-C / LDL-C / TG: oral, blood after four weeks hypercholesterol diet. As to the method:
Lipid-lowering in vivo experiments are made in hyperlipidemia quail with the compounds [NT] according to the present invention. Atorvastatin (20 mg/kg) were used as the positive control. Two groups of dosage (Low: 5 mg/kg, High: 20 mg/kg) of the ten compounds of [NT] were tested. After one week feeding with normal diet, except for the normal control group, the model control group and the tested groups of quails were fed with hypercholesterol diet for four weeks, and then the blood was collected respectively for testing the content of […] including triglyceride, cholesterol, low density lipoprotein and high density lipoprotein.

[1] abbreviates: oral administration, hyperlipidemia quail.

Under “High: 20 mg/kg”, `COc1cccc(Sc2c(/C=C/[C@@H](O)C[C@@H](O)CC(=O)[O-])cnc3cc(Cl)c(F)cc23)c1.COc1cccc(Sc2c(/C=C/[C@@H](O)C[C@@H](O)CC(=O)[O-])cnc3cc(Cl)c(F)cc23)c1.[Ca+2]` [Compound A11] returned a CHO of 8.53 mmol/L, a H/L of 1.33, an HDL-C of 5.06 mmol/L and an LDL-C of 4.30 mmol/L. The TG (High: 20 mg/kg) amounted to 0.42 mmol/L. For the setting “Low: 5 mg/kg”, this compound yielded a CHO of 11.63 mmol/L, a H/L of 1.24, an HDL-C of 6.32 mmol/L and an LDL-C of 6.51 mmol/L. For the setting “Low: 5 mg/kg”, this compound yielded a TG of 0.56 mmol/L. Moreover, the “lipid-lowering effect (in words)” value under setting [1] is recorded as “obvious lipid-lowering effect”.
Under “High: 20 mg/kg”, `O=C([O-])C[C@H](O)C[C@H](O)/C=C/c1cnc2c(F)c(F)c(F)cc2c1Sc1ccc(F)cc1.O=C([O-])C[C@H](O)C[C@H](O)/C=C/c1cnc2c(F)c(F)c(F)cc2c1Sc1ccc(F)cc1.[Ca+2]` [Compound A8] came in with a CHO of 5.57 mmol/L, a H/L of 2.21, an HDL-C of 3.73 mmol/L and an LDL-C of 1.94 mmol/L. Besides, the TG (High: 20 mg/kg) worked out at 0.45 mmol/L. For the setting “Low: 5 mg/kg”, the CHO is listed as 9.11 mmol/L, the H/L is listed as 1.58, the HDL-C was 4.75 mmol/L and the LDL-C was found to be 3.46 mmol/L. Moreover, the TG (Low: 5 mg/kg) is 1.50 mmol/L. Moreover, the “lipid-lowering effect (in words)” value under setting [1] is reported as “obvious lipid-lowering effect”.
Consider `O=C([O-])C[C@H](O)C[C@H](O)/C=C/c1cnc2c(F)c(Oc3ccccc3)c(F)cc2c1Oc1ccccc1.O=C([O-])C[C@H](O)C[C@H](O)/C=C/c1cnc2c(F)c(Oc3ccccc3)c(F)cc2c1Oc1ccccc1.[Ca+2]` [Compound A12, (3R,5S)-7-[6,8-difluoro-4,7-di-(phenoxy)quinoline-3-yl]-3,5-dihydroxy-6(E)-heptenoic acid hemi calcium salt], for which, for the setting “High: 20 mg/kg”, the CHO was 6.25 mmol/L, the H/L came out at 2.11, the HDL-C was determined as 3.77 mmol/L and the LDL-C stood at 2.52 mmol/L. Also, the TG (High: 20 mg/kg) was 0.97 mmol/L. Where the note is “Low: 5 mg/kg”, this compound returned a CHO of 12.40 mmol/L, a H/L of 1.43, an HDL-C of 6.21 mmol/L and an LDL-C of 6.75 mmol/L. For the same compound, the TG (Low: 5 mg/kg) is listed as 0.54 mmol/L. For the same compound, the “lipid-lowering effect (in words)” value under setting [1] is “obvious lipid-lowering effect”.
Where the note is “High: 20 mg/kg”, `O=C([O-])C[C@H](O)C[C@H](O)/C=C/c1cnc2cc(Cl)c(F)cc2c1Oc1ccc(F)cc1.O=C([O-])C[C@H](O)C[C@H](O)/C=C/c1cnc2cc(Cl)c(F)cc2c1Oc1ccc(F)cc1.[Ca+2]` [Compound A14, (3R,5S)-7-[6-fluoro-7-chloro-4-(4-fluorophenoxy)quinoline-3-yl]-3,5-dihydroxy-6(E)-heptenoic acid hemi calcium salt] had a CHO of 7.61 mmol/L, a H/L of 1.44, an HDL-C of 4.66 mmol/L and an LDL-C of 3.62 mmol/L. Moreover, the TG (High: 20 mg/kg) was found to be 0.96 mmol/L. Under “Low: 5 mg/kg”, this compound yielded a CHO of 11.64 mmol/L, a H/L of 1.15, an HDL-C of 6.63 mmol/L and an LDL-C of 6.40 mmol/L. The TG (Low: 5 mg/kg) is listed as 0.74 mmol/L. Also, under setting [1], the “lipid-lowering effect (in words)” value was “obvious lipid-lowering effect”.
Under “High: 20 mg/kg”, `CC(C)Sc1ccc(-c2c(/C=C/[C@@H](O)C[C@@H](O)CC(=O)[O-])cnc3c(F)c(F)c(F)cc23)cc1.CC(C)Sc1ccc(-c2c(/C=C/[C@@H](O)C[C@@H](O)CC(=O)[O-])cnc3c(F)c(F)c(F)cc23)cc1.[Ca+2]` [Compound A6, (3R,5S)-7-[6,7,8-trifluoro-4-(4-isopropylthiophenyl)quinoline-3-yl]-3,5-dihydroxy-6(E)-heptenoic acid hemi calcium salt] came in with a CHO of 8.66 mmol/L, a H/L of 1.37, an HDL-C of 4.74 mmol/L and an LDL-C of 3.66 mmol/L. Also, where the note is “High: 20 mg/kg”, the TG was 4.47 mmol/L. Further, under “Low: 5 mg/kg”, the CHO was 8.65 mmol/L, the H/L was 1.21, the HDL-C stood at 4.89 mmol/L and the LDL-C is given as 4.61 mmol/L. The TG (Low: 5 mg/kg) was determined as 0.70 mmol/L. Under setting [1], the “lipid-lowering effect (in words)” value is on record as “obvious lipid-lowering effect”.
Under “High: 20 mg/kg”, `CC(C)c1c(C(=O)Nc2ccccc2)c(-c2ccccc2)c(-c2ccc(F)cc2)n1CC[C@@H](O)C[C@@H](O)CC(=O)O` [Atorvastatin, reference compound] yielded a CHO of 6.51 mmol/L, a H/L of 2.19, an HDL-C of 4.39 mmol/L and an LDL-C of 2.51 mmol/L. For the setting “High: 20 mg/kg”, this compound showed a TG of 0.76 mmol/L.
For the setting “High: 20 mg/kg”, `O=C([O-])C[C@H](O)C[C@H](O)/C=C/c1cnc2c(Oc3ccccc3)c(Oc3ccccc3)c(Oc3ccccc3)cc2c1Oc1ccccc1.O=C([O-])C[C@H](O)C[C@H](O)/C=C/c1cnc2c(Oc3ccccc3)c(Oc3ccccc3)c(Oc3ccccc3)cc2c1Oc1ccccc1.[Ca+2]` [Compound A9, (3R,5S)-7-[4,6,7,8-tetra-phenoxyquinoline-3-yl]-3,5-dihydroxy-6(E)-heptenoic acid hemi calcium salt] yielded a CHO of 9.18 mmol/L, a H/L of 1.54, an HDL-C of 4.98 mmol/L and an LDL-C of 4.08 mmol/L. The TG (High: 20 mg/kg) stood at 1.26 mmol/L. In addition, where the note is “Low: 5 mg/kg”, the CHO worked out at 9.75 mmol/L, the H/L is given as 1.56, the HDL-C turned out to be 4.98 mmol/L and the LDL-C worked out at 5.16 mmol/L. The compound also registered a TG (Low: 5 mg/kg) of 1.24 mmol/L. Further, the “lipid-lowering effect (in words)” value under setting [1] is on record as “obvious lipid-lowering effect”.
For the compound `CC(C)Sc1ccc(-c2cc3c(-c4ccc(SC(C)C)cc4)c(/C=C/[C@@H](O)C[C@@H](O)CC(=O)O)cnc3c(-c3ccc(SC(C)C)cc3)c2-c2ccc(SC(C)C)cc2)cc1` [Compound A1, (3R,5S)-7-[4,6,7,8-tetra-(4-isopropylthiophenyl)quinoline-3-yl]-3,5-dihydroxy-6(E)-heptenoic acid], where the note is “High: 20 mg/kg”, the CHO was found to be 8.05 mmol/L, the H/L is 1.54, the HDL-C worked out at 5.31 mmol/L and the LDL-C is given as 3.63 mmol/L. This compound also had a TG (High: 20 mg/kg) of 0.51 mmol/L. For the same compound, where the note is “Low: 5 mg/kg”, the CHO was determined as 8.72 mmol/L, the H/L turned out to be 1.91, the HDL-C is 5.84 mmol/L and the LDL-C is reported as 3.99 mmol/L. The compound further returned a TG (Low: 5 mg/kg) of 0.59 mmol/L. Also, the “lipid-lowering effect (in words)” value under setting [1] is on record as “obvious lipid-lowering effect”.
`COc1cccc(Sc2cc3ncc(/C=C/[C@@H](O)C[C@@H](O)CC(=O)[O-])c(Sc4cccc(OC)c4)c3cc2F)c1.COc1cccc(Sc2cc3ncc(/C=C/[C@@H](O)C[C@@H](O)CC(=O)[O-])c(Sc4cccc(OC)c4)c3cc2F)c1.[Ca+2]` [Compound A5]: where the note is “High: 20 mg/kg”, the CHO was determined as 10.55 mmol/L, the H/L is 1.06, the HDL-C is given as 5.35 mmol/L and the LDL-C stood at 6.40 mmol/L. This compound had a TG (High: 20 mg/kg) of 0.58 mmol/L. Under “Low: 5 mg/kg”, this compound gave a CHO of 9.66 mmol/L, a H/L of 1.29, an HDL-C of 5.35 mmol/L and an LDL-C of 5.07 mmol/L. Moreover, the TG (Low: 5 mg/kg) is recorded as 1.95 mmol/L. Further, under setting [1], the “lipid-lowering effect (in words)” value is “obvious lipid-lowering effect”.
Where the note is “High: 20 mg/kg”, `CC(C)c1ccc(Sc2cc3ncc(/C=C/[C@@H](O)C[C@@H](O)CC(=O)[O-])c(Sc4ccc(C(C)C)cc4)c3cc2F)cc1.CC(C)c1ccc(Sc2cc3ncc(/C=C/[C@@H](O)C[C@@H](O)CC(=O)[O-])c(Sc4ccc(C(C)C)cc4)c3cc2F)cc1.[Ca+2]` [Compound A13] yielded a CHO of 8.88 mmol/L, a H/L of 1.79, an HDL-C of 5.64 mmol/L and an LDL-C of 3.95 mmol/L. Also, the TG (High: 20 mg/kg) is 0.35 mmol/L. For the setting “Low: 5 mg/kg”, the CHO turned out to be 14.13 mmol/L, the H/L was 0.92, the HDL-C stood at 6.93 mmol/L and the LDL-C is on record as 9.23 mmol/L. The compound further had a TG (Low: 5 mg/kg) of 0.56 mmol/L. Under setting [1], the “lipid-lowering effect (in words)” value is on record as “obvious lipid-lowering effect”; the “way of reducing lipidemia (in words)” value is “reduces lipidemia by lowering TG and increasing H/L ratio”.

These data come from patent US8227612B2, “Quinoline compound and pharmaceutical composition, preparation method and uses thereof” (Shanghai Institute of Pharmaceutical Industry, priority 2008, dated 2012).
